In patent US8389523B2, “Substituted quinoxaline and an agrochemical composition thereof” (Kumiai Chemical Industry Co., Ltd., priority 2007, dated 2013):

Tests used:
Type in all cases: in vivo
Parameters in all cases: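 grade 0 to 5 of growth suppression where 5 is 90% or more and 0 below 10%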
[1] = tested on: Abutilon theophrasti medicus; assay: Herbicidal effects in upland field foliar treatment (Test Example 3); conditions: criteria of Table 138; for herbicidal effect (index) on Abutilon theophrasti medicus: 1000 g active ingredient per hectare, 14th day after treatment; for herbicidal effects on Abutilon theophrasti medicus: 1000 g of the active ingredient per hectare, 14th day after the treatment, wettable powder
In short: (§1)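 Weeds were sown in upland field soil and grown two weeks in a greenhouse before a foliar spray over the whole plant. Wettable powder was diluted in water and applied at 1000 L/ha, delivering 1000 g active ingredient/ha. Herbicidal effect was scored against set rating criteria 14 days after treatment.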

[2] = tested on: Echinochloa crus-galli (L.) P. Beauv. var. crus-galli; assay: as above; conditions: criteria of Table 138; for herbicidal effect (index) on Echinochloa crus-galli (L.) P. Beauv. var. crus-galli: 1000 g active ingredient per hectare, 14th day after treatment; for herbicidal effects on Echinochloa crus-galli (L.) P. Beauv. var. crus-galli: 1000 g of the active ingredient per hectare, 14th day after the treatment, wettable powder
In short: as §1

[3] = tested on: Amaranthus viridis L.; assay: as above; conditions: criteria of Table 138; for herbicidal effect (index) on Amaranthus viridis L.: 1000 g active ingredient per hectare, 14th day after treatment; for herbicidal effects on Amaranthus viridis L.: 1000 g of the active ingredient per hectare, 14th day after the treatment, wettable powder
In short: as §1

[4] = tested on: Abutilon theophrasti medicus; assay: Herbicidal effects in upland field soil treatment (Test Example 2); conditions: 1000 g active ingredient per hectare, 21st day after treatment, criteria of Table 138
In short: (§2)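 Pre-emergence soil application: seeds sown in upland field soil, covered, then wettable powder diluted in water sprayed on the soil surface at 1000 g active ingredient/ha in 1000 L/ha. Plants grown in greenhouse; herbicidal effect scored on a rating scale 21 days after treatment.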

[5] = tested on: Amaranthus viridis L.; assay: as above; conditions: 1000 g active ingredient per hectare, 21st day after treatment, criteria of Table 138
In short: as §2

[6] = tested on: Echinochloa oryzicola Vasing; assay: Herbicidal effects in paddy field soil treatment (Test Example 1); conditions: paddy field soil treatment; 1000 g of the active ingredient per hectare; wettable powder added dropwise on water surface; 21st day after treatment
In short: (§3)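 Weed seeds were sown into puddled, leveled paddy soil in pots and flooded to 3 cm water depth. One day later the diluted wettable powder formulation was dropped onto the water surface at 1000 g active ingredient per hectare. Herbicidal effect was scored on day 21 after greenhouse growth.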

[7] = tested on: Monochoria vaginalis (Burm. f.) Presl var. plantaginea (Roxb.) Solms-Laub.; assay: as above; conditions: paddy field soil treatment; 1000 g of the active ingredient per hectare; wettable powder added dropwise on water surface; 21st day after treatment
In short: as §3

[8] = tested on: Scirpus juncoides Roxb. var. ohwianus. T. Koyama; assay: as above; conditions: paddy field soil treatment; 1000 g of the active ingredient per hectare; wettable powder added dropwise on water surface; 21st day after treatment
In short: as §3

| Compound | herbicidal effect (index) on Abutilon theophrasti medicus [1] | herbicidal effect (index) on Echinochloa crus-galli (L.) P. Beauv. var. crus-galli [2] | herbicidal effect (index) on Amaranthus viridis L. [3] | herbicidal effect (index) on Abutilon theophrasti medicus [4] | herbicidal effect (index) on Amaranthus viridis L. [5] | Herbicidal effects index, Echinochloa oryzicola Vasing [6] | Herbicidal effects index, Monochoria vaginalis (Burm. f.) Presl var. plantaginea (Roxb.) Solms-Laub. [7] | Herbicidal effects index, Scirpus juncoides Roxb. var. ohwianus. T. Koyama [8] | herbicidal effects on Abutilon theophrasti medicus [1] | herbicidal effects on Echinochloa crus-galli (L.) P. Beauv. var. crus-galli [2] | herbicidal effects on Amaranthus viridis L. [3] |
| --- | --- | --- | --- | --- | --- | --- | --- | --- | --- | --- | --- |
| CCCCn1c(=O)c(C(=O)C2=C(O)CCCC2=O)nc2ccccc21 [Compound I-15] | 5 | 5 | 5 | 5 | 5 | 5 | 5 | 5 |  |  |  |
| CCc1cccc(-n2c(=O)c(C(=O)C3=C(O)CCCC3=O)nc3ccccc32)c1 [II-23] |  |  |  | 5 | 5 | 5 | 5 | 5 | 5 | 5 | 5 |
| Cc1cc(-n2c(=O)c(C(=O)C3=C(O)C(C)(C)C(=O)C(C)(C)C3=O)nc3ccccc32)no1 [I-149] | 5 | 5 | 5 | 5 | 5 | 5 | 5 | 4 |  |  |  |
| O=C1CCCC(O)=C1C(=O)c1nc2cccnc2n(CC(F)(F)F)c1=O [III-40] |  |  |  | 5 | 5 | 5 | 5 | 5 | 5 | 4 | 5 |
| Cc1cccnc1-n1c(=O)c(C(=O)C2=C(O)CCCC2=O)nc2ccccc21 [I-272] | 5 | 5 | 5 | 5 | 5 | 5 | 5 | 5 |  |  |  |
| O=C1CCCC(O)=C1C(=O)c1nc2cccnc2n(-c2ccccc2F)c1=O [IV-6] |  |  |  | 5 | 5 | 4 | 5 | 5 | 5 | 4 | 5 |
| O=C1CCCC(O)=C1C(=O)c1nc2ccccc2n(-c2ccccc2)c1=O [II-1] | 5 | 5 | 5 | 5 | 5 | 5 | 5 | 5 |  |  |  |
| O=C1CCCC(O)=C1C(=O)c1nc2ccccc2n(-c2cccc3ccccc23)c1=O [I-263] | 5 | 5 | 5 | 5 | 5 | 5 | 5 | 5 |  |  |  |
| Cc1ccc(-n2c(=O)c(C(=O)C3=C(O)CCCC3=O)nc3ccccc32)cc1C [II-211] |  |  |  | 5 | 5 | 5 | 5 | 5 | 5 | 5 | 5 |
| CC(C)(C)OC(=O)Cn1c(=O)c(C(=O)C2=C(O)CCCC2=O)nc2cccnc21 [III-99] |  |  |  | 5 | 5 | 5 | 5 | 5 | 5 | 4 | 5 |
| O=C1CCCC(O)=C1C(=O)c1nc2ccccc2n(-c2ccc(Br)cn2)c1=O [I-271] | 5 | 5 | 5 | 5 | 5 | 5 | 5 | 5 |  |  |  |
| COc1cc(-n2c(=O)c(C(=O)C3=C(O)CCCC3=O)nc3ccccc32)cc(OC)c1OC [II-185] |  |  |  | 5 | 5 | 4 | 5 | 5 | 5 | 4 | 5 |
